Assay results from PubChem BioAssay AID292 (DTP/NCI, 2004).
Several values for one entry are separate records, joined by “and”; a condition that tells them apart may be missing. Identical values can stand only once. Toxic doses and inconclusive results are not listed. The calls were made as follows: active = survival T/C of 150% or more; inactive = T/C below 125% in these data.

System: B6C3F1 mice, ip Sarcoma M5076, median survival T/C
Assay: NCI In Vivo Anticancer Drug Screen. Data for tumor model Sarcoma M5076 (intraperitoneal) in B6C3F1 mice
Conditions: endpoint: median survival time, higher = longer survival
Outline: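 Antitumour effect is judged in tumour-bearing mice by comparing survival after compound dosing against vehicle-only animals, reported as T/C.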

[1] = dose: 50.0 mg/kg/injection, schedule: Q04DX004 (ip), vehicle: suspension in saline
[2] = dose: 100.0 mg/kg/injection, schedule: Q04DX004 (ip), vehicle: suspension in saline
[3] = dose: 200.0 mg/kg/injection, schedule: Q04DX004 (ip), vehicle: suspension in saline
[4] = dose: 50.0 mg/kg/injection, schedule: Q04DX004 (ip), vehicle: Klucel (hydroxypropylcellulose) (HPC)

Measured: T/C

CS(=O)(=O)OCCCNCCCOS(C)(=O)=O
active: dose: 10.0 mg/kg/injection, schedule: Q04DX005 (ip), vehicle: saline 150 % of control | dose: 20.0 mg/kg/injection, schedule: Q04DX005 (ip), vehicle: saline 185 % of control | dose: 40.0 mg/kg/injection, schedule: Q04DX005 (ip), vehicle: saline 319 % of control | dose: 80.0 mg/kg/injection, schedule: Q04DX005 (ip), vehicle: saline 319 % of control

CCOC(=O)C1=C(Nc2ccc(OC)cc2)C(N)=NC1=N
inactive: dose: 12.5 mg/kg/injection, schedule: Q04DX004 (ip), vehicle: suspension in saline 102 % of control | dose: 25.0 mg/kg/injection, schedule: Q04DX004 (ip), vehicle: suspension in saline 100 % of control | dose: 50.0 mg/kg/injection, schedule: Q04DX004 (ip), vehicle: saline with Tween-80 101 % of control | [1] 111 % of control | dose: 100.0 mg/kg/injection, schedule: Q04DX004 (ip), vehicle: saline with Tween-80 99 % of control | [2] 101 % of control | dose: 200.0 mg/kg/injection, schedule: Q04DX004 (ip), vehicle: saline with Tween-80 102 % of control | [3] 105 % of control | dose: 400.0 mg/kg/injection, schedule: Q04DX004 (ip), vehicle: saline with Tween-80 106 % of control | dose: 800.0 mg/kg/injection, schedule: Q04DX004 (ip), vehicle: saline with Tween-80 101 % of control

CN1C(=O)C2CC(O)C(SC3CC4C(=O)N(C)C(=O)C4CC3O)CC2C1=O (stereo unspecified)
inactive: dose: 37.5 mg/kg/injection, schedule: Q04DX004 (ip), vehicle: water 101 % of control | dose: 75.0 mg/kg/injection, schedule: Q04DX004 (ip), vehicle: water 105 % of control | dose: 150.0 mg/kg/injection, schedule: Q04DX004 (ip), vehicle: water 102 % of control | dose: 300.0 mg/kg/injection, schedule: Q04DX004 (ip), vehicle: water 97 % of control | dose: 600.0 mg/kg/injection, schedule: Q04DX004 (ip), vehicle: water 107 % of control

Oc1cc(O)cc(/C=C/c2ccc(O)c(O)c2)c1
inactive: dose: 12.5 mg/kg/injection, schedule: Q04DX004 (ip), vehicle: DMSO 97 % of control | dose: 25.0 mg/kg/injection, schedule: Q04DX004 (ip), vehicle: DMSO 99 % of control | dose: 50.0 mg/kg/injection, schedule: Q04DX004 (ip), vehicle: DMSO 89 % of control | dose: 100.0 mg/kg/injection, schedule: Q04DX004 (ip), vehicle: DMSO 91 % of control

CN1COc2c(n(C)c(=O)[nH]c2=O)C1
inactive: [1] 106 % of control | [2] 106 % of control | [3] 105 % of control | dose: 400.0 mg/kg/injection, schedule: Q04DX004 (ip), vehicle: suspension in saline 106 % of control | dose: 800.0 mg/kg/injection, schedule: Q04DX004 (ip), vehicle: suspension in saline 114 % of control

O=C1NCC(Br)C(=O)N1 (stereo unspecified)
inactive: dose: 50.0 mg/kg/injection, schedule: Q04DX004 (ip), vehicle: saline + Tween-80 + alcohol 95 % of control | dose: 100.0 mg/kg/injection, schedule: Q04DX004 (ip), vehicle: saline + Tween-80 + alcohol 97 % of control | dose: 200.0 mg/kg/injection, schedule: Q04DX004 (ip), vehicle: saline + Tween-80 + alcohol 94 % of control | dose: 400.0 mg/kg/injection, schedule: Q04DX004 (ip), vehicle: saline + Tween-80 + alcohol 120 % of control

Cc1c2c(ccc3ccccc32)c[n+]2ccccc12
inactive: dose: 1.5 mg/kg/injection, schedule: Q04DX004 (ip), vehicle: saline with Tween-80 97 % of control and 104 % of control and 109 % of control | dose: 3.0 mg/kg/injection, schedule: Q04DX004 (ip), vehicle: saline with Tween-80 92 % of control and 97 % of control and 104 % of control | dose: 6.0 mg/kg/injection, schedule: Q04DX004 (ip), vehicle: saline with Tween-80 92 % of control and 107 % of control and 115 % of control | dose: 12.0 mg/kg/injection, schedule: Q04DX004 (ip), vehicle: saline with Tween-80 92 % of control

CSC1=NCc2c(sc3c2CCCC3)N1
inactive: dose: 37.5 mg/kg/injection, schedule: Q04DX004 (ip), vehicle: Klucel (hydroxypropylcellulose) (HPC) 98 % of control | dose: 75.0 mg/kg/injection, schedule: Q04DX004 (ip), vehicle: Klucel (hydroxypropylcellulose) (HPC) 103 % of control | dose: 150.0 mg/kg/injection, schedule: Q04DX004 (ip), vehicle: Klucel (hydroxypropylcellulose) (HPC) 99 % of control | dose: 300.0 mg/kg/injection, schedule: Q04DX004 (ip), vehicle: Klucel (hydroxypropylcellulose) (HPC) 102 % of control

O=S(CCCl)CCCl
inactive: dose: 6.25 mg/kg/injection, schedule: Q04DX004 (ip), vehicle: Klucel (hydroxypropylcellulose) (HPC) 102 % of control | dose: 12.5 mg/kg/injection, schedule: Q04DX004 (ip), vehicle: Klucel (hydroxypropylcellulose) (HPC) 98 % of control | dose: 25.0 mg/kg/injection, schedule: Q04DX004 (ip), vehicle: Klucel (hydroxypropylcellulose) (HPC) 98 % of control | [4] 106 % of control

N#CC1C(=O)NC(=S)NC1c1ccco1 (stereo unspecified)
inactive: [4] 98 % of control | dose: 100.0 mg/kg/injection, schedule: Q04DX004 (ip), vehicle: Klucel (hydroxypropylcellulose) (HPC) 100 % of control
